Experimental data: US11278555B2, “Combinational therapies for treatment of cancer comprising a bacteriochlorophyll derivative” (Yeda Research and Development Co. Ltd., priority 2016, dated 2022)

Test system: Foxp3+ Treg, CD8+ T cells, G-MDSC/neutrophils
Assay type: in vivo
Details: CTX treated vs only VTP
Procedure: • (i) Bacteriochlorophyll Derivatives—The Bchl derivatives and RGD-conjugates thereof were provided by Steba Biotech (Rehovot, Israel). […] Concentration was verified by spectrophotometric measurement. STL-7012 was provided as dipotassium salt. Working solution was prepared by dissolving STL-7012 K^+ salt in 5% mannitol solution (1 mg/ml). […] WST11 was supplied as a powder and kept in the dark at −20° C. Stock was prepared by dissolving WST11 in DDW containing 5% glucose and 0.67% mannitol, aliquoted and lyophilized. Working solution was reconstituted with DDW and the concentration of solution was confirmed spectrophotometrically. Alternatively, Clinical WST11 (batch: P00611, and 10-130611) was supplied as lyophilized formulation. Material was dissolved in 5% dextrose, aliquoted and stored at −20° C. […] Aliquots were thawed, diluted with saline to a desired concentration and used on the same day at a dose of 75 mg/kg. Cyclophosphamide (CTX, Endoxan®, Baxter Oncology Gmbh, Germany) was purchased from a local pharmacy. A stock solution of 20 mg/ml was prepared by dissolving in 0.9% NaCl, aliquoted and stored at −20° C. Aliquots were thawed, diluted with saline if needed to a desired concentration and used on the same day prepared at indicated doses. • (iii) Murine cell lines—Mammary luciferase (luc)-labeled 4T1 cell line (4T1-Luc) was a kind gift from Dr. Zvi Granot (Faculty of Medicine, The Hebrew University of Jerusalem, Israel); melanoma B16-F10 cell line was obtained from the American Type Culture Collection (ATCC, Manassas, Va.); bladder MB49 cell line was a kind gift from James Allison (MSKCC, New York, USA), and luc-labeled MB49-cell line was established using the murine stem cell virus (MSCV)-puromycin-luc-GFP construct (kindly provided by Dr. Emily Cheng, Human Oncology and Pathogenesis Program, MSKCC). 4T1 and MB49 cells were maintained in DMEM medium and B16-F10 cells in RPMI medium supplemented with 1 mmol/L sodium pyruvate, 10% fetal calf serum (FCS), 250 μg/ml hygromycin, 0.06 mg/ml penicillin and 0.1 mg/ml streptomycin. The cells were grown as monolayer at 37° C. in a humidified atmosphere (5% CO2, 95% air). • (iv) Murine tumor models—Female, Balb/c mice (6-8 week old) were grafted either subcutaneously (s.c.) into the right hind leg or orthotopically with 1×10^6 4T1 cells suspended in 50 or 1000 PBS. […] Whole body imaging of luciferase-transfected tumors and metastases were recorded five minutes following 75 mg Kg^−1 intraperitoneal (i.p.) injection of D-luciferin with respective filter sets. • (vi) PDT treatment protocol: 4T1-Luc cells were grafted in the mammary pad of Balb/c mice. […] Ablation of primary tumors was assessed every 7 days by imaging the tumor's luciferase-mediated bioluminescence signal, using IVIS.

CCC1c2cc3[n-]c(c(CC(=O)OC)c4nc(cc5[n-]c(cc(n2)C1C)c(C(C)=O)c5C)C(C)C4CCC(=O)[O-])c(C(=O)NCCS(=O)(=O)[O-])c3C.[K+].[K+].[Pd+2] (stereo not shown) [WST11, Palladium 3^1-oxo-15-methoxycarbonylmethyl-rhodobacteriochlorin 13^1-(2-sulfoethyl) amide dipotassium salt]
total cell numbers in draining lymph nodes and spleens after VTP: decrease in cell counts
